Reference: ChEMBL document CHEMBL1201862, “PubChem BioAssay data set” (2004)
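Each compound was tested at five concentrations against cells in 96-well plates for 48 hours. Abbreviation: GI50, concentration required for 50% inhibition of growth.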 Activity calls are given as the source filed them. Rule as the data show it: active = GI50 up to about 1.1 µM and inactive = higher. Numbered stars: 1 amine (or outer) side, 2 acyl side, 3 side chain; on linkers, the order of the positions; unused ones are H or OH. Bridge positions count the residues as written; N and C are the ends. Square brackets hold non-standard residues; d marks the D form. Peptide text beside a SMILES is read from it. X58 = COc1c(N[*:1])cccc1C(=O)O[C@H](C(=O)[C@H](C)C(=O)[*:2])C(C)C; X57 = CC(C)C[C@H](C(=O)[*:2])C(C)C(=O)C1CCCN1[*:1]; NMeY = CN[C@@H](Cc1ccc(O)cc1)C(=O)O; Lac = C[C@H](O)C(=O)O

What was measured:
Test in all cases: DTP human tumour cell line panel, 48 h
786-0 = tested on: 786-0
A549 = tested on: A549
COLO 205 = tested on: COLO 205
DU-145 = tested on: DU-145
HL-60 = tested on: HL-60
HOP-62 = tested on: HOP-62
HT-29 = tested on: HT-29
KM12 = tested on: KM12
M14 = tested on: M14
MOLT-4 = tested on: MOLT-4
NCI-H522 = tested on: NCI-H522
OVCAR-3 = tested on: OVCAR-3
OVCAR-4 = tested on: OVCAR-4
OVCAR-5 = tested on: OVCAR-5
SK-MEL-28 = tested on: SK-MEL-28
TK-10 = tested on: TK-10
UACC-257 = tested on: UACC-257
NCI-H226 = tested on: NCI-H226
RXF 393 = tested on: RXF 393
SW-620 = tested on: SW-620

Measured: GI50

OC(c1ccccc1)(c1ccccc1)c1nccc2ccccc12
inactive: 786-0 55 µM | A549 36.9 µM | COLO 205 28.1 µM | DU-145 41.7 µM | HL-60 32.3 µM | HOP-62 18.9 µM | HT-29 26.8 µM | KM12 35.9 µM | M14 20.8 µM | MOLT-4 16.7 µM | NCI-H522 16.7 µM | OVCAR-3 17.2 µM | OVCAR-4 31.6 µM | OVCAR-5 31.7 µM | SK-MEL-28 22.6 µM | TK-10 12.9 µM | UACC-257 31 µM

O=C1c2ccccc2C(=O)c2c(Nc3ccc4c5c(cccc35)C(=O)c3ccccc3-4)cccc21
inactive: 786-0 > 100 µM | A549 > 100 µM | DU-145 > 100 µM | HOP-62 > 100 µM | HT-29 > 100 µM | KM12 > 100 µM | M14 > 100 µM | MOLT-4 > 100 µM | NCI-H226 > 100 µM | NCI-H522 > 100 µM | OVCAR-3 > 100 µM | OVCAR-4 > 100 µM | OVCAR-5 > 100 µM | RXF 393 > 100 µM | SW-620 > 100 µM | TK-10 > 100 µM | UACC-257 > 100 µM

Cc1ncc([N+](=O)[O-])n1CCN=[N+]=[N-]
inactive: 786-0 > 100 µM | A549 > 100 µM | COLO 205 > 100 µM | DU-145 > 100 µM | HOP-62 > 100 µM | HT-29 > 100 µM | KM12 > 100 µM | M14 > 100 µM | NCI-H226 > 100 µM | NCI-H522 > 100 µM | OVCAR-3 > 100 µM | OVCAR-4 > 100 µM | OVCAR-5 > 100 µM | RXF 393 > 100 µM | SK-MEL-28 > 100 µM | SW-620 > 100 µM | TK-10 > 100 µM | UACC-257 > 100 µM

CC(C)(C)OC/C=C1\C(=O)O[C@H]2C[C@@H](O[Si](C)(C)C(C)(C)C)C[C@@H]12
inactive: 786-0 > 100 µM | A549 69.2 µM | COLO 205 > 100 µM | DU-145 > 100 µM | HOP-62 85.3 µM | HT-29 73.6 µM | KM12 67.9 µM | M14 61.8 µM | MOLT-4 25.1 µM | NCI-H226 > 100 µM | NCI-H522 33.5 µM | OVCAR-3 49.9 µM | OVCAR-4 92.3 µM | OVCAR-5 > 100 µM | RXF 393 32.2 µM | SK-MEL-28 > 100 µM | SW-620 > 100 µM | TK-10 > 100 µM | UACC-257 62.4 µM

C#CCN(N=O)C(=O)NC(CCCNC(=O)OCc1ccccc1)C(=O)OCc1ccccc1 (stereo not drawn)
inactive: 786-0 > 100 µM | A549 > 100 µM | COLO 205 91.2 µM | HL-60 20.1 µM | HOP-62 > 100 µM | HT-29 > 100 µM | KM12 > 100 µM | M14 > 100 µM | MOLT-4 24.8 µM | NCI-H226 > 100 µM | NCI-H522 13.2 µM | OVCAR-3 > 100 µM | OVCAR-4 > 100 µM | OVCAR-5 > 100 µM | RXF 393 22.6 µM | SK-MEL-28 24.9 µM | SW-620 55.8 µM | TK-10 > 100 µM | UACC-257 77.1 µM

CCN1C(=O)/C(=C\c2coc3ccccc3c2=O)SC1=S
inactive: 786-0 73.8 µM | A549 > 100 µM | COLO 205 > 100 µM | HL-60 > 100 µM | HOP-62 61.9 µM | HT-29 > 100 µM | KM12 > 100 µM | M14 > 100 µM | MOLT-4 > 100 µM | NCI-H226 > 100 µM | NCI-H522 91.4 µM | OVCAR-3 > 100 µM | OVCAR-4 > 100 µM | OVCAR-5 > 100 µM | RXF 393 36.5 µM | SK-MEL-28 > 100 µM | SW-620 49.4 µM | TK-10 > 100 µM | UACC-257 > 100 µM

COc1ccccc1C(C1=C(O)COC1=O)c1cc2c(cc1OC(C)=O)OCO2 (stereo not drawn)
inactive: 786-0 > 100 µM | A549 > 100 µM | COLO 205 > 100 µM | DU-145 > 100 µM | HL-60 > 100 µM | HOP-62 > 100 µM | HT-29 > 100 µM | KM12 > 100 µM | M14 > 100 µM | MOLT-4 > 100 µM | NCI-H226 > 100 µM | OVCAR-3 > 100 µM | OVCAR-4 > 100 µM | OVCAR-5 > 100 µM | RXF 393 > 100 µM | SK-MEL-28 > 100 µM | SW-620 > 100 µM | TK-10 > 100 µM | UACC-257 > 100 µM

Cn1c(-c2cccs2)cc(-c2cccs2)c1-c1ccsc1
inactive: 786-0 > 100 µM | A549 70.5 µM | COLO 205 > 100 µM | DU-145 > 100 µM | HL-60 > 100 µM | HOP-62 53 µM | HT-29 > 100 µM | KM12 29.5 µM | M14 > 100 µM | MOLT-4 > 100 µM | NCI-H226 > 100 µM | OVCAR-3 12.4 µM | OVCAR-4 > 100 µM | OVCAR-5 > 100 µM | RXF 393 3.64 µM | SK-MEL-28 > 100 µM | SW-620 > 100 µM | TK-10 > 100 µM | UACC-257 66.8 µM

O=C1Nc2ccc(Cl)cc2C(=O)N2CCC[C@@H]12
inactive: 786-0 > 100 µM | A549 > 100 µM | COLO 205 > 100 µM | DU-145 > 100 µM | HOP-62 > 100 µM | HT-29 > 100 µM | KM12 > 100 µM | M14 > 100 µM | MOLT-4 > 100 µM | NCI-H226 > 100 µM | NCI-H522 > 100 µM | OVCAR-3 > 100 µM | OVCAR-4 > 100 µM | OVCAR-5 > 100 µM | RXF 393 60.3 µM | SK-MEL-28 > 100 µM | SW-620 > 100 µM | TK-10 > 100 µM | UACC-257 > 100 µM

O=c1c(O)c(-c2ccccc2)oc2c(CP(=O)(O)O)cccc12
inactive: 786-0 > 100 µM | A549 > 100 µM | COLO 205 > 100 µM | DU-145 > 100 µM | HOP-62 8.55 µM | M14 > 100 µM | MOLT-4 > 100 µM | NCI-H522 > 100 µM | OVCAR-3 > 100 µM | OVCAR-4 > 100 µM | OVCAR-5 > 100 µM | RXF 393 > 100 µM | TK-10 > 100 µM | UACC-257 > 100 µM

C/C=C1\CN2CCC34c5ccccc5N(C)C35OCC4(C(=O)OC)C1CC25 (stereo not drawn)
inactive: 786-0 76.2 µM | A549 61.4 µM | COLO 205 16 µM | DU-145 74.6 µM | HL-60 15.2 µM | HOP-62 65.8 µM | KM12 37.1 µM | M14 21.4 µM | MOLT-4 45.7 µM | NCI-H522 47.8 µM | OVCAR-3 76.2 µM | OVCAR-4 51.2 µM | OVCAR-5 > 100 µM | SK-MEL-28 27.7 µM | SW-620 41.6 µM | TK-10 > 100 µM | UACC-257 32.4 µM

N#Cc1ccccc1C#C/C=C\C#Cc1ccccn1
inactive: 786-0 20.3 µM | A549 19.8 µM | COLO 205 27.4 µM | DU-145 28.6 µM | HL-60 6.71 µM | HOP-62 19 µM | HT-29 18 µM | M14 15.5 µM | OVCAR-3 4.27 µM | OVCAR-4 75.9 µM | OVCAR-5 28.6 µM | RXF 393 14.1 µM | SK-MEL-28 17.5 µM | SW-620 12.6 µM | TK-10 30.9 µM | UACC-257 13.7 µM

[N-]=[N+]=CC(=O)CCC(=O)N(c1ccccc1)c1ccccc1
inactive: 786-0 > 10 µM | A549 > 10 µM | DU-145 > 10 µM | HL-60 > 10 µM | HOP-62 > 10 µM | HT-29 > 10 µM | KM12 > 10 µM | M14 > 10 µM | MOLT-4 > 10 µM | NCI-H226 > 10 µM | OVCAR-3 > 10 µM | OVCAR-5 > 10 µM | RXF 393 > 10 µM | SK-MEL-28 > 10 µM | SW-620 > 10 µM | TK-10 > 10 µM | UACC-257 > 10 µM

C=C1C(=O)O[C@@H]2[C@H]1C[C@@H](O)[C@H](C)[C@@](O)(C(=O)/C=C/C)[C@H]2OC(=O)C(C)CC (stereo partly drawn)
inactive: 786-0 2.61 µM | A549 15.2 µM | COLO 205 1.75 µM | DU-145 4.27 µM | HOP-62 21 µM | HT-29 2.24 µM | KM12 14.8 µM | M14 3.3 µM | MOLT-4 2.44 µM | NCI-H226 43.4 µM | NCI-H522 1.26 µM | OVCAR-3 3.26 µM | OVCAR-4 6.97 µM | OVCAR-5 5.47 µM | RXF 393 2.15 µM | SK-MEL-28 7.85 µM | SW-620 2.42 µM | TK-10 3.37 µM | UACC-257 3.1 µM

COc1ccc(C[C@H]2C(=O)O[C@H](C)[C@H](NC(=O)[C@@H](CC(C)C)C(C)C(=O)C3CCCN3C(=O)[C@H](C)O)C(=O)Nc3cccc(c3OC)C(=O)O[C@@H](C(C)C)C(=O)[C@H](C)C(=O)N[C@@H](CC(C)C)C(=O)N3CCC[C@H]3C(=O)N2C)cc1 (stereo partly drawn) (H-[Lac][X57]T[X58]LP[NMeY](Me); ester 3-C)
inactive: 786-0 > 12.5 µM | A549 6.75 µM | COLO 205 9.29 µM | DU-145 > 12.5 µM | HOP-62 > 12.5 µM | HT-29 2.79 µM | KM12 > 12.5 µM | M14 11.4 µM | MOLT-4 1.91 µM | NCI-H226 7.26 µM | NCI-H522 9.82 µM | OVCAR-3 7.38 µM | OVCAR-4 > 12.5 µM | OVCAR-5 > 12.5 µM | RXF 393 > 12.5 µM | SK-MEL-28 > 12.5 µM | SW-620 9.29 µM | TK-10 > 12.5 µM | UACC-257 > 12.5 µM
